# Measured values taken from US11000601B2, “Conjugated biological molecules, pharmaceutical compositions and methods” (OBI Pharma, Inc., priority 2016, dated 2021).
# Values joined by “and” are separate entries in the source; they are usually repeats but may differ in a detail not shown here. Equal entries are not always repeated. Marks after values point to notes of the source that are not given here. Square brackets hold non-standard residues; d marks the D form. Peptide text beside a SMILES is read from it. * marks the point of attachment. Dolaproine = CO[C@@H]([C@@H]1CCCN1)[C@@H](C)C(=O)O; Dil = CC[C@H](C)[C@H](NC)[C@@H](CC(=O)O)OC; X1 = C[C@@H](N*)[C@@H](O)c1ccccc1; NMeV = CN[C@H](C(=O)O)C(C)C
# Key:
# [1] = tested on: NCI-H526 (ATCC CRL-5811) variant small cell lung cancer cells; assay: Xenograft tumor model of human small cell lung cancer NCI-H526 in female nu/nu mice: tumor volume, T/C, TGI; type: in vivo; details: for Tumor Volume (mm^3), individual animal: animals No. 1-8; for Tumor Volume (mm^3), individual animal / Tumor Volume (mm^3), Mean: once weekly x 4 (10 mg/kg IV; MMAE 0.191 mg/kg IP); for Tumor Volume (mm^3), Mean: group mean; for % T/C: treatment/control x 100%, <=42% considered significant; for % TGI: vs vehicle control
# Experimental: In a xenograft tumor model of human small cell lung cancer, viable NCI-H526 stage E carcinoma; variant small cell lung cancer cells (ATCC CRL-5811), were subcutaneously (SC) implanted (1×10^6 cells with matrigel (1:0.8) in 0.2 mL/mouse) into the right flank of female nu/nu mice. Tumor implanted mice were divided into five treatment groups, each group containing eight animals, and test agent administrations were initiated one day after cell implantation (denoted as Day 1).
# The NCI-H526 tumor cell line was purchased from American Type Culture Collection (ATCC CRL-5811, variant small cell lung carcinoma) and cultured in Eurofins Panlabs Taiwan, Ltd. The cells were cultured in RPMI-1640 medium containing 10% fetal bovine serum (FBS) at 37° C. in 5% CO2 incubator and implanted subcutaneously in the right flank of each mouse.
# Female nu/nu nude, aged 6-7 weeks, were obtained from BioLasco Taiwan (under Charles River Laboratories Licensee) and used. The animals were housed in individually ventilated cages (IVC, 36 Mini Isolator system). The allocation for 5 animals was 27×20×14 in cm. All animals were maintained in a hygienic environment under controlled temperature (20-24° C.) and humidity (30-70%) with 12-hour light/dark cycle. Free access to standard lab diet [MFG (Oriental Yeast Co., Ltd., Japan)] and autoclaved tap water were granted. All aspects of this work including housing, experimentation, and animal disposal were performed in general accordance with the “Guide for the Care and Use of Laboratory Animals: Eighth Edition” (National Academies Press, Washington, D.C., 2011) in our AAALAC-accredited laboratory animal facility. In addition, the animal care and use protocol was reviewed and approved by the IACUC at Eurofins Panlabs Taiwan, Ltd.
# The tumor volumes, body weights, mortality, and signs of overt toxicity were monitored and recorded twice weekly for 45 days. Tumor growth inhibition was calculated as T/C (treatment/control)×100%. A T/C value≤42% compared to that of the vehicle control group was considered significant anti-tumor activity. Two-way ANOVA followed by Bonferroni test was used to ascertain the statistically significant significance of groups compared to respective vehicle control (*p<0.05).
# [2] = Body weight, mortality and signs of overt toxicity in NCI-N87 implanted female nu/nu mice; type: in vivo, mouse
# Experimental: In a xenograft tumor model of human gastric carcinoma, viable NCI-N87 (ATCC CRL-5822) cells were subcutaneously (SC) implanted (2.5×10^6 cells/mL with matrigel (1:1) at 0.2 mL/mouse) into the right flank of female nu/nu mice. Tumor implanted mice were divided into seven treatment groups, each group containing eight animals, and one group containing five animals, and dose administrations were initiated one day after cell implantation (denoted as Day 1).
# Female nude (nu/nu) mice aged 5-6 weeks obtained from BioLasco Taiwan (under Charles River Laboratories Licensee) were used. The animals were housed in individually ventilated cages (IVC, 36 Mini Isolator system). The allocation for 3 animals was 27×20×14 in cm. All animals were maintained in a hygienic environment under controlled temperature (20-24° C.) and humidity (30%-70%) with 12-hour light/dark cycle. Free access to standard lab diet [MFG (Oriental Yeast Co., Ltd., Japan)] and autoclaved tap water in bottles were granted. All aspects of this work including housing, experimentation, and animal disposal were performed in general accordance with the “Guide for the Care and Use of Laboratory Animals: Eighth Edition” (National Academies Press, Washington, D.C., 2011) in our AAALAC-accredited laboratory animal facility. In addition, the animal care and use protocol was reviewed and approved by the IACUC at Eurofins Panlabs Taiwan, Ltd.
# The tumor volumes, body weights, mortality, and signs of overt toxicity were monitored and recorded twice weekly for 100 days. Tumor growth inhibition was calculated as T/C (treatment/control)×100%. A T/C value≤42% compared to that of the vehicle control group was considered significant anti-tumor activity. Two-way ANOVA followed by Bonferroni test was used to ascertain the statistically significant significance of groups compared to respective vehicle control (*p<0.05).
# [3] = 0.191 mg/kg × 4 IP once weekly, group mean
# [4] = 0.191 mg/kg × 4 IP once weekly, individual mouse
smiles,measurement,setting,value
"CC[C@H](C)[C@@H]([C@@H](CC(=O)N1CCC[C@H]1[C@H](OC)[C@@H](C)C(=O)N[C@H](C)[C@@H](O)c1ccccc1)OC)N(C)C(=O)[C@@H](NC(=O)[C@@H](NC)C(C)C)C(C)C [MMAE, monomethyl auristatin E] (H-[NMeV]V[Dil][Dolaproine]-X1)",maximum percent TGI,"[1]; 0.191 mg/kg IP weekly, Day 18",55%
same,anti-tumor activity (in words),"[1]; 0.191 mg/kg IP weekly, over the course of the study",moderate anti-tumor activity
same,"Tumor Volume (mm^3), individual animal",[1]; Day 1,75 mm^3 and 108 mm^3 and 81 mm^3 and 83 mm^3 and 99 mm^3 and 60 mm^3 and 68 mm^3 and 91 mm^3
same,"Tumor Volume (mm^3), Mean",[1]; Day 1,83 mm^3
same,% T/C,[1]; Day 1,108%
same,"Tumor Volume (mm^3), individual animal",[1]; Day 4,80 mm^3 (2×) and 127 mm^3 and 101 mm^3 and 88 mm^3 and 115 mm^3 and 85 mm^3 and 108 mm^3
same,"Tumor Volume (mm^3), Mean",[1]; Day 4,98 mm^3
same,% T/C,[1]; Day 4,120%
same,% TGI,[1]; Day 4,−20%
same,"Tumor Volume (mm^3), individual animal",[1]; Day 8,94 mm^3 (2×) and 74 mm^3 (2×) and 83 mm^3 and 70 mm^3 and 82 mm^3 and 121 mm^3
same,"Tumor Volume (mm^3), Mean",[1]; Day 8,87 mm^3
same,% T/C,[1]; Day 8,97%
same,% TGI,[1]; Day 8,3%
same,"Tumor Volume (mm^3), individual animal",[1]; Day 11,74 mm^3 and 86 mm^3 and 89 mm^3 and 104 mm^3 and 121 mm^3 and 67 mm^3 and 77 mm^3 and 79 mm^3
same,"Tumor Volume (mm^3), Mean",[1]; Day 11,87 mm^3
same,% T/C,[1]; Day 11,68%
same,% TGI,[1]; Day 11,32%
same,"Tumor Volume (mm^3), individual animal",[1]; Day 15,82 mm^3 and 133 mm^3 and 137 mm^3 and 101 mm^3 and 144 mm^3 and 89 mm^3 and 172 mm^3 and 123 mm^3
same,"Tumor Volume (mm^3), Mean",[1]; Day 15,123 mm^3
same,% T/C,[1]; Day 15,71%
same,% TGI,[1]; Day 15,29%
same,"Tumor Volume (mm^3), individual animal",[1]; Day 18,80 mm^3 and 199 mm^3 and 246 mm^3 and 169 mm^3 and 187 mm^3 and 101 mm^3 and 281 mm^3 and 202 mm^3
same,"Tumor Volume (mm^3), Mean",[1]; Day 18,183 mm^3
same,% T/C,[1]; Day 18,45%
same,% TGI,[1]; Day 18,55%
same,"Tumor Volume (mm^3), individual animal",[1]; Day 22,74 mm^3 and 618 mm^3 and 530 mm^3 and 337 mm^3 and 317 mm^3 and 152 mm^3 and 621 mm^3 and 401 mm^3
same,"Tumor Volume (mm^3), Mean",[1]; Day 22,381 mm^3
same,% T/C,[1]; Day 22,52%
same,% TGI,[1]; Day 22,48%
same,"Tumor Volume (mm^3), individual animal",[1]; Day 25,70 mm^3 and 1163 mm^3 and 1095 mm^3 and 483 mm^3 and 525 mm^3 and 249 mm^3 and 1078 mm^3 and 535 mm^3
same,"Tumor Volume (mm^3), Mean",[1]; Day 25,650* mm^3
same,% T/C,[1]; Day 25,58%
same,% TGI,[1]; Day 25,42%
same,"Tumor Volume (mm^3), individual animal",[1]; Day 29,90 mm^3 and 1756 mm^3 and 1410 mm^3 and 853 mm^3 and 522 mm^3 and 431 mm^3 and 1313 mm^3 and 845 mm^3
same,"Tumor Volume (mm^3), Mean",[1]; Day 29,903* mm^3
same,% T/C,[1]; Day 29,48%
same,% TGI,[1]; Day 29,52%
same,"Tumor Volume (mm^3), individual animal",[1]; Day 31,173 mm^3 and 1901 mm^3 and 1682 mm^3 and 1172 mm^3 and 657 mm^3 and 550 mm^3 and 1595 mm^3 and 1044 mm^3
same,"Tumor Volume (mm^3), Mean",[1]; Day 31,1097* mm^3
same,% T/C,[1]; Day 31,48%
same,% TGI,[1]; Day 31,52%
same,"Tumor Volume (mm^3), individual animal",[1]; Day 36,126 mm^3 and 3047 mm^3 and 2480 mm^3 and 2090 mm^3 and 759 mm^3 and 1032 mm^3 and 2538 mm^3 and 1318 mm^3
same,"Tumor Volume (mm^3), Mean",[1]; Day 36,1674 mm^3
same,"Tumor Volume (mm^3), individual animal",[1]; Day 39,56 mm^3 and 4380 mm^3 and 2713 mm^3 and 2836 mm^3 and 841 mm^3 and 1304 mm^3 and 3040 mm^3 and 1339 mm^3
same,"Tumor Volume (mm^3), Mean",[1]; Day 39,2064 mm^3
same,Mortality (animal entered as died in tumor volume table),"[2]; 0.191 mg/kg × 4 IP (Once weekly), mouse No. 6, Day 57-Day 100",died
same,"Body Weight Day 1, Mean",[2]; [3],21.9 g
same,"Body Weight Day 4, Mean",[2]; [3],20.4 g
same,"Body Weight Day 8, Mean",[2]; [3],22.1 g
same,"Body Weight Day 11, Mean",[2]; [3],22.6 g
same,"Body Weight Day 15, Mean",[2]; [3],23.4 g
same,"Body Weight Day 18, Mean",[2]; [3],23.6 g
same,"Body Weight Day 25, Mean",[2]; [3],24.0 g
same,"Body Weight Day 32, Mean",[2]; [3],25.1 g
same,"Body Weight Day 36, Mean",[2]; [3],25.1 g
same,"Body Weight Day 50, Mean",[2]; [3],26.0 g
same,Body Weight Day 1,[2]; [4],20 g (2×) and 22 g (3×) and 24 g (2×) and 21 g
same,Body Weight Day 4,[2]; [4],18 g and 19 g (2×) and 22 g and 21 g and 20 g and died and 24 g
same,Body Weight Day 8,[2]; [4],22 g (3×) and 23 g (2×) and died and 24 g and 19 g
same,Body Weight Day 11,[2]; [4],22 g (2×) and 23 g (2×) and 25 g and 24 g and died and 19 g
same,Body Weight Day 15,[2]; [4],24 g (2×) and 23 g (3×) and 25 g and died and 22 g
same,Body Weight Day 18,[2]; [4],24 g (3×) and 22 g (2×) and 23 g and 26 g and died
same,Body Weight Day 22,[2]; [4],24 g (3×) and 22 g and 25 g (3×) and died
same,Body Weight Day 25,[2]; [4],24 g (4×) and 22 g and 25 g (2×) and died
same,Body Weight Day 29,[2]; [4],25 g (3×) and 24 g and 26 g (3×) and died
same,Body Weight Day 32,[2]; [4],25 g (2×) and 23 g and 24 g and 27 g and 26 g (2×) and died
same,Body Weight Day 36,[2]; [4],26 g (2×) and 24 g and 25 g (4×) and died
same,Body Weight Day 39,[2]; [4],26 g (6×) and 24 g and died
same,Body Weight Day 43,[2]; [4],26 g (6×) and 24 g and died
same,Body Weight Day 46,[2]; [4],26 g (3×) and 25 g and 27 g (3×) and died
same,Body Weight Day 50,[2]; [4],26 g (4×) and 24 g and 27 g (2×) and died
same,Body Weight Day 53,[2]; [4],27 g (4×) and 24 g and died and 26 g and 28 g
same,Mortality (animal recorded as died in tumor volume table),"[2]; animal No. 6, Day 4-Day 25, 0.191 mg/kg × 4 IP once weekly",died
